Test results reported in ChEMBL document CHEMBL1201862, “PubChem BioAssay data set” (2004).
Activity calls are given as the source filed them.

What was measured:
Type in all cases: functional
[1] = target: T1, Sentrin-specific protease 8 (Homo sapiens, UniProt Q96LD8);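 also: luminescence read-out of SENP8 inhibition, dose-response confirmation following an ultra-high-throughput screen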
T1 sequence (Q96LD8 whole entry): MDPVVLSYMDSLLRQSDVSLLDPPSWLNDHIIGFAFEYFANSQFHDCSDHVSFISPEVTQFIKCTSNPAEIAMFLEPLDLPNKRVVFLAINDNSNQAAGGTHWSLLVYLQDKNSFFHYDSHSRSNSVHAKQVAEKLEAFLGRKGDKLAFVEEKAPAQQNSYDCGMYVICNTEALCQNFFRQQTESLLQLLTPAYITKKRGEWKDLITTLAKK

[2] = growth suppression of beta-catenin-knockout colon cells, dose response, cell-based, HCT116, human colon tumor (AID 1045);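 also: HCT116 colon tumor cells with beta catenin knocked out; cells exposed to compound for 60 hours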
[3] = target: T2, Sentrin-specific protease 7 (Homo sapiens, UniProt Q9BQF6);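 also: Luminescence-based dose-response confirmation of ultra-high-throughput screening hits, measuring inhibition of SENP7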
T2 sequence (Q9BQF6 whole entry): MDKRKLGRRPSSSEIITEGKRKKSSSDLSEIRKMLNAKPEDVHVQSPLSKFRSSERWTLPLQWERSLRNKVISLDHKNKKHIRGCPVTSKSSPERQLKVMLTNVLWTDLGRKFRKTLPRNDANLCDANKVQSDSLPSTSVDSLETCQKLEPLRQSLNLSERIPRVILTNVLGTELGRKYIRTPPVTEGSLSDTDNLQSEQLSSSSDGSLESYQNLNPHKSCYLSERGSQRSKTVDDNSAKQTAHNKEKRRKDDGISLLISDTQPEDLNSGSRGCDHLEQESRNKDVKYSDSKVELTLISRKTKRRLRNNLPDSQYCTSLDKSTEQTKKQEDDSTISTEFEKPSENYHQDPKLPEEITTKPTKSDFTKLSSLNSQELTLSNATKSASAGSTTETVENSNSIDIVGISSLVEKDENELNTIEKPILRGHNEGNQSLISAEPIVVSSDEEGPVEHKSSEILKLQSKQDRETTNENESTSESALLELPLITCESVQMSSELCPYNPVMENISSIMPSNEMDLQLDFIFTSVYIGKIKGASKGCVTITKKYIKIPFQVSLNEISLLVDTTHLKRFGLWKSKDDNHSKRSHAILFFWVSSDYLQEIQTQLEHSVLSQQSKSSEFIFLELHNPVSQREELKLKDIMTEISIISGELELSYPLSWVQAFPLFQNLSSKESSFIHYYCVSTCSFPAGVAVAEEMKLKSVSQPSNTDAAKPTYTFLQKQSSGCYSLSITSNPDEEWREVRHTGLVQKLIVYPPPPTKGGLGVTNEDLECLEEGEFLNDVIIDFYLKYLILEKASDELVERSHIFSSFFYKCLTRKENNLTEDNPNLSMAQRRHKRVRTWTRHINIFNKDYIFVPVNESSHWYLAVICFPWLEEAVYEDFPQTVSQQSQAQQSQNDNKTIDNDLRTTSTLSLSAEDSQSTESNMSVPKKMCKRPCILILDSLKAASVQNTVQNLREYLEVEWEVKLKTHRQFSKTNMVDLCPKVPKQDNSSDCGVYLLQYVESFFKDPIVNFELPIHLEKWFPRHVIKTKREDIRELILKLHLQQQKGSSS

[4] = target: MAP kinase-activated protein kinase 3 (Homo sapiens, UniProt Q16644);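 also: value comes from a kinome-wide profiling panel in which MAPKAPK3 is one of the panel members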
[5] = target: Serine/threonine-protein kinase MRCK alpha (Homo sapiens, UniProt Q5VT25)
[6] = target: Hepatocyte growth factor receptor (Homo sapiens, UniProt P08581);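 also: kinase panel profiling across the kinome, with MET as the panel member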
[7] = target: 5'-AMP-activated protein kinase catalytic subunit alpha-1 (Homo sapiens, UniProt Q13131)
[8] = target: Tyrosine-protein kinase Lyn (Homo sapiens, UniProt P07948);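 also: lyn as one member of a kinase panel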
[9] = target: Serine/threonine-protein kinase PAK 4 (Homo sapiens, UniProt O96013);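 also: value obtained within a kinome profiling panel in which PAK4 was one of the panel members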
[10] = target: Calcium/calmodulin-dependent protein kinase type 1 (Homo sapiens, UniProt Q14012)
[11] = target: Vascular endothelial growth factor receptor 2 (Homo sapiens, UniProt P35968)
[12] = target: Serine/threonine-protein kinase PLK4 (Homo sapiens, UniProt O00444);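 also: PLK4 measured as one member of a kinome-wide kinase profiling panel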
[13] = target: Receptor-type tyrosine-protein kinase FLT3 (Homo sapiens, UniProt P36888);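 also: FLT3 was tested as one member of a kinome-wide kinase panel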
[14] = target: Mitogen-activated protein kinase 8 (Homo sapiens, UniProt P45983);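 also: value comes from one member of a kinome-wide kinase profiling panel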
[15] = target: Serine/threonine-protein kinase pim-2 (Homo sapiens, UniProt Q9P1W9);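 also: value comes from a broad kinase panel profiling study in which PIM2 was one of the panel members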
[16] = target: Serine/threonine-protein kinase D2 (Homo sapiens, UniProt Q9BZL6);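 also: measured against PRKD2 as one member of a kinome-wide kinase profiling panel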
[17] = target: Tyrosine-protein kinase JAK3 (Homo sapiens, UniProt P52333)
[18] = target: Mitogen-activated protein kinase 9 (Homo sapiens, UniProt P45984);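 also: value from a kinome panel profiling assay, MAPK9 panel entry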
[19] = target: RAC-alpha serine/threonine-protein kinase (Homo sapiens, UniProt P31749);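 also: AKT1 affinity measured as one member of a kinome-wide kinase profiling panel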
[20] = target: Dual specificity tyrosine-phosphorylation-regulated kinase 1A (Homo sapiens, UniProt Q13627);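 also: measured against DYRK1A as one member of a broad kinome profiling panel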
[21] = target: Ribosomal protein S6 kinase beta-1 (Homo sapiens, UniProt P23443);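 also: measured as one member of a kinome-wide profiling panel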
[22] = target: T3, Ubiquitin-conjugating enzyme E2 N (Homo sapiens, UniProt P61088)
T3 sequence (P61088 whole entry): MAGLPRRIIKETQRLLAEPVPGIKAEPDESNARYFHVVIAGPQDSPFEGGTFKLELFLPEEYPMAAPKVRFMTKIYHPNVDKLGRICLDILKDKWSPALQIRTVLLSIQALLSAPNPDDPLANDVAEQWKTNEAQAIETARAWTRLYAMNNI

BJ = experiment: cytotoxicity toward BJ-TERT fibroblasts, dose response, cell-based, RAS-independent, luminescence (AID 1933); settings: Homo sapiens

Receptor-type tyrosine-protein kinase FLT3, sequence (P36888 whole entry): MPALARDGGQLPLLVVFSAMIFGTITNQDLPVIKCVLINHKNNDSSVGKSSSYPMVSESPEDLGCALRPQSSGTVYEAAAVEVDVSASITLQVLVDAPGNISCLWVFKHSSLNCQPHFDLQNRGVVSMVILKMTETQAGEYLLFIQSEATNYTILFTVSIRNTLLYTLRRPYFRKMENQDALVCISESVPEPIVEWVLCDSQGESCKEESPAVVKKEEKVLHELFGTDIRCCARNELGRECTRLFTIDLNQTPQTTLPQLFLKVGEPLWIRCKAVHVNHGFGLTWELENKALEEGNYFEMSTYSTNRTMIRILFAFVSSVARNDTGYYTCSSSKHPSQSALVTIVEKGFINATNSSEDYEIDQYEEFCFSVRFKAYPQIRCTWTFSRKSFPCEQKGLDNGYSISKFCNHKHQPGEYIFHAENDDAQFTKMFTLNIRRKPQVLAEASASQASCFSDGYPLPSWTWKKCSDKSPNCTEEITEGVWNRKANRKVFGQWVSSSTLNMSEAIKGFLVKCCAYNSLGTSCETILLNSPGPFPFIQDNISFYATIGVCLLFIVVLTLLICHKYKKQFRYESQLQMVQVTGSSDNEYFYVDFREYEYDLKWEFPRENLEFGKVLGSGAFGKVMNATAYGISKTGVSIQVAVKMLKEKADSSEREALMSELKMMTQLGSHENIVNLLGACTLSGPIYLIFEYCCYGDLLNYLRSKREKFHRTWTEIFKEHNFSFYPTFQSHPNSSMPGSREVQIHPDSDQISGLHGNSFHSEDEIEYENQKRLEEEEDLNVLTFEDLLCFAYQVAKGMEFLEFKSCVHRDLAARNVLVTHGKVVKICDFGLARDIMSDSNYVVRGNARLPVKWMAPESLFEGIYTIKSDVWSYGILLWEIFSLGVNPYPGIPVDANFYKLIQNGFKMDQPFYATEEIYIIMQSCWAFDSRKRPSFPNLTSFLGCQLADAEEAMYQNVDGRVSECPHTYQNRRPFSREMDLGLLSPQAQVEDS
Vascular endothelial growth factor receptor 2, sequence (P35968 whole entry): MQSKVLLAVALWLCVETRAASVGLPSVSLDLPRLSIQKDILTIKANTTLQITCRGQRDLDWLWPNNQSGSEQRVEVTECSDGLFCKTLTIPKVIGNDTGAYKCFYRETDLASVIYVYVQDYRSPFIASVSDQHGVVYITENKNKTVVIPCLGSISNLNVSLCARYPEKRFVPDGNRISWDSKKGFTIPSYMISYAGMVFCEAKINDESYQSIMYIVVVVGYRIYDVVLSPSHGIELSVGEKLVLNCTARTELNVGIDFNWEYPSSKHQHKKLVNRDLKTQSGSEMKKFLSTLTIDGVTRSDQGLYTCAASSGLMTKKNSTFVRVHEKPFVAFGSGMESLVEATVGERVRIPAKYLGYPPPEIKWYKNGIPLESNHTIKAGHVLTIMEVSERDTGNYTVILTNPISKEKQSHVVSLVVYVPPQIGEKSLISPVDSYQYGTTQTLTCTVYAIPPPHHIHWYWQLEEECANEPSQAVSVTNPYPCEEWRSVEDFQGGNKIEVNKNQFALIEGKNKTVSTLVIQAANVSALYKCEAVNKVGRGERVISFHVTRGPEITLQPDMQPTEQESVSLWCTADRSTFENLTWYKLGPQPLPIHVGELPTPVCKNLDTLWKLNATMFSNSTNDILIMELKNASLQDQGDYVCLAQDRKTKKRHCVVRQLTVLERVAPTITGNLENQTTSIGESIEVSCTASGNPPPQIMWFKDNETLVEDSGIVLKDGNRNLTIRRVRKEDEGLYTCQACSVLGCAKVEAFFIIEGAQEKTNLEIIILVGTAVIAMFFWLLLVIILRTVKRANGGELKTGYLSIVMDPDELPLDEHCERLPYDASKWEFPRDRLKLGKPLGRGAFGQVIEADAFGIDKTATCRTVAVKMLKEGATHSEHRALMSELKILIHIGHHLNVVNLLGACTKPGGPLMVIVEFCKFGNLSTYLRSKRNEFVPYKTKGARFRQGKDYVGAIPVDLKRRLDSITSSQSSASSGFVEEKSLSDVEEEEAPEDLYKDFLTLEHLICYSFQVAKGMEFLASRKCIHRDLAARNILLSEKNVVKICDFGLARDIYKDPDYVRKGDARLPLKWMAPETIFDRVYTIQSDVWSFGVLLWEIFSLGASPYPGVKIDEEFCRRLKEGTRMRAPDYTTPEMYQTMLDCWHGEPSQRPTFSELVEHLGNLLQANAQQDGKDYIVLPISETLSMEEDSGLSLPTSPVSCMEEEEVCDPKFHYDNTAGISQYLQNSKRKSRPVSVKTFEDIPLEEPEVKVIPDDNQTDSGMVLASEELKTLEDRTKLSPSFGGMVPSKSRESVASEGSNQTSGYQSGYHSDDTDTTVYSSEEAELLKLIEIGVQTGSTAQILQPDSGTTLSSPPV
Serine/threonine-protein kinase D2, sequence (Q9BZL6 whole entry): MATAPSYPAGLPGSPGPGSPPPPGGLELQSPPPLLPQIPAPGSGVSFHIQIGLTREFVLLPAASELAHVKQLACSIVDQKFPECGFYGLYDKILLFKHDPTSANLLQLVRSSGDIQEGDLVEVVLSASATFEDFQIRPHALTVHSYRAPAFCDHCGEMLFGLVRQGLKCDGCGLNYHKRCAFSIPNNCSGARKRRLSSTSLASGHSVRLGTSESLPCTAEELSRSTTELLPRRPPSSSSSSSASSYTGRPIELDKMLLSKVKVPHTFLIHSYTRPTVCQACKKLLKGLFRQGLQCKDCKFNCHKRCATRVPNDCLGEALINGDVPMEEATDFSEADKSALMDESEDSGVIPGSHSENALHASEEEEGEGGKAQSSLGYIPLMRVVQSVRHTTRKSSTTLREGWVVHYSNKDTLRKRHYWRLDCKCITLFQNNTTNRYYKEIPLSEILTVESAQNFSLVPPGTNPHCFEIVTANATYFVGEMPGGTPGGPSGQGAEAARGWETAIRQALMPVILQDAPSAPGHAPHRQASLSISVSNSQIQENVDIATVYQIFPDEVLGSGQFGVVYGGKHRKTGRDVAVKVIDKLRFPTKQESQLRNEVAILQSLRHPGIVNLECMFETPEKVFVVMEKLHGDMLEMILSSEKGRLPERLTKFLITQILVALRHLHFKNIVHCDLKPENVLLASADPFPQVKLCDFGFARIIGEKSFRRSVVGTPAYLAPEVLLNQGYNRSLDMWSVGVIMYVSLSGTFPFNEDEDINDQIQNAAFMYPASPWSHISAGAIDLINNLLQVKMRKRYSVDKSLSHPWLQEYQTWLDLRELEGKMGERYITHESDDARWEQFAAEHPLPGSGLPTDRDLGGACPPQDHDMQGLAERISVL
Hepatocyte growth factor receptor, sequence (P08581 whole entry): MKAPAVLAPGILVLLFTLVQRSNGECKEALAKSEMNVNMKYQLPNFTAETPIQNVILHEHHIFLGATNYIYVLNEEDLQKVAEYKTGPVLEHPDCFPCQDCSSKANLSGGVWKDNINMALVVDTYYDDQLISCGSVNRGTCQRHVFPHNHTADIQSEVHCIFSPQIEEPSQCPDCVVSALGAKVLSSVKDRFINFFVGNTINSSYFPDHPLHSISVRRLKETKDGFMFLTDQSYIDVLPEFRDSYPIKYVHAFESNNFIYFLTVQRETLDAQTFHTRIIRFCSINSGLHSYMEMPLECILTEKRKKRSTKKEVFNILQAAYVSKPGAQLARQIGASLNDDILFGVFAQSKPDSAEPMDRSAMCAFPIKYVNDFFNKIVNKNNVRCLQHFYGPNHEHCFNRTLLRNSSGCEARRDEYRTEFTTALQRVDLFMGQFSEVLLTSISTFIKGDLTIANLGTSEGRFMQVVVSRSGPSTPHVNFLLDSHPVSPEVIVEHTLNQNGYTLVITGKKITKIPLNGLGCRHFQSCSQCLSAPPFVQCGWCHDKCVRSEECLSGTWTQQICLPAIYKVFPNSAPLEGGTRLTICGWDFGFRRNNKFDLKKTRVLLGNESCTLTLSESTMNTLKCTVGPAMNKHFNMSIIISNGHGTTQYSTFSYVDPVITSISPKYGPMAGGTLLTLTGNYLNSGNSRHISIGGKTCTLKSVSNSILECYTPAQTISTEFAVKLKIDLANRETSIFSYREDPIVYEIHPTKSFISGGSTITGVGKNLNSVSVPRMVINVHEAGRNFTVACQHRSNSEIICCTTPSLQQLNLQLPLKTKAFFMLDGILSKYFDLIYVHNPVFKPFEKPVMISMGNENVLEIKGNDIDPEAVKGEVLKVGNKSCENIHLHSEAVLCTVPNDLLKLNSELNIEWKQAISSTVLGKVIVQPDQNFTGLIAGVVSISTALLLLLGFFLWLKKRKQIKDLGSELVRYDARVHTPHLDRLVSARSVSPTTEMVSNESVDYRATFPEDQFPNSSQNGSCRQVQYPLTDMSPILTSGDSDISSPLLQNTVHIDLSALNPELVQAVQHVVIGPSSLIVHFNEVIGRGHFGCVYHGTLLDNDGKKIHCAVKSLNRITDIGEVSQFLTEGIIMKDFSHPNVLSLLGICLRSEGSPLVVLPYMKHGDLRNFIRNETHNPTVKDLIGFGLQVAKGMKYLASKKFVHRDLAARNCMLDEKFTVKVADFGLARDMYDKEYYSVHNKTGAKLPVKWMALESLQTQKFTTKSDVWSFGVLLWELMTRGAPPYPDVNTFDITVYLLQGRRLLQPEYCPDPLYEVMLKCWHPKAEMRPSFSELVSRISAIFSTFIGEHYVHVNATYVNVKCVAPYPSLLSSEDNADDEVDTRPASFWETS
RAC-alpha serine/threonine-protein kinase, sequence (P31749 whole entry): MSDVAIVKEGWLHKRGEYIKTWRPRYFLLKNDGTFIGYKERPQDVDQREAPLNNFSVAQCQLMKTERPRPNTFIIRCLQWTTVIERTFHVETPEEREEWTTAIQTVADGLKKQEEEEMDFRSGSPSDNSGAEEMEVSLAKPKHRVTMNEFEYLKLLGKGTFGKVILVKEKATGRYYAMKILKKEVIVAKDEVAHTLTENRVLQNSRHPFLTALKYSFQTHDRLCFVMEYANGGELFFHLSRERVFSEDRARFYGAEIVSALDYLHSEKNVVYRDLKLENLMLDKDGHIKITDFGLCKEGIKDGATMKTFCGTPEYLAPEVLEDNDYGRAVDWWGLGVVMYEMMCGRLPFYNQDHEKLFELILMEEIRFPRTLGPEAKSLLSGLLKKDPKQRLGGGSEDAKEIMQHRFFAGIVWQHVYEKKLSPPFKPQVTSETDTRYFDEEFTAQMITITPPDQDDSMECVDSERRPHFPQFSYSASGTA

CCC(C)NC(=O)c1c(N)n(CCCOC)c2nc3ccccc3nc12 (stereo not drawn)
IC50 [1]: 2060 nM (active) | EC50 [2]: 34100 nM (active) | IC50 [3]: 1360 nM (active)

CC(=NNC(=N)N)c1cc(NC(=O)NCCCCCCNC(=O)Nc2cc(C(C)=NNC(=N)N)cc(C(C)=NNC(=N)N)c2)cc(C(C)=NNC(=N)N)c1
Ki [4]: 631 nM (active) | Ki [5]: 316 nM (active) | Ki [6]: 2510 nM (active) | Ki [7]: 2510 nM (active) | Ki [8]: > 1580 nM (inactive) | Ki [9]: 2510 nM (active) | Ki [10]: 3160 nM (active) | Ki [11]: > 7940 nM (inactive) | Ki [12]: > 3980 nM (inactive) | Ki [13]: 2000 nM (active) | Ki [14]: > 3160 nM (inactive) | Ki [15]: 200 nM (active) | Ki [16]: 631 nM (active) | Ki [17]: 1000 nM (active) | Ki [18]: > 3980 nM (inactive) | Ki [19]: 398 nM (active) | Ki [20]: > 6310 nM (inactive) | Ki [21]: 316 nM (active)

Cc1cc(N)c2cc(NC(=O)/C=C/c3ccccc3Cl)ccc2n1
IC50 [22]: 3000 nM (active) | EC50 (BJ): 2620 nM (inconclusive)
